Experimental data as given in patent publication US9487529B2, “Macrocyclic compounds as ALK, FAK and JAK2 inhibitors” (Cephalon, Inc., priority 2011, dated 2016).
Read-outs that look alike come from different tables or passages of the source.

Experiments:
[1] = biological target: T1, human insulin receptor cytoplasmic domain (βIRCD) (Homo sapiens, UniProt P06213); assay: Insulin Receptor Kinase Assay (TRF); format: biochemical; details: 20 μM ATP, read-out: IR IC50
T1 construct: human insulin receptor cytoplasmic domain (βIRCD); host or cells: baculovirus expression system
Method: Example compounds were tested for their ability to inhibit the kinase activity of baculovirus-expressed human insulin receptor cytoplasmic domain (βIRCD) using the TRF assay as described above for ALK. Phosphorylation of the substrate, recombinant GST-PLC-γ, was detected with a europium-labeled anti-phosphotyrosine antibody and measured by TRF. Each 96-well plate (Greiner#655074) was coated with 100 μL/well of 20 μg/mL substrate solution in TBS. The IR assay mixture (total volume=100 μL/well) consisting of 20 mM HEPES (pH 7.2), 20 μM ATP, 5 mM MnCl2, 0.1% BSA, and test compound (diluted in DMSO; 2.5% DMSO final in assay) was added to the assay plates. Enzyme (20 ng/mL βIRCD) was added and the reaction was allowed to proceed at room temperature for 20 minutes. Detection of the phosphorylated product was performed by adding 100 μL/well of Eu—N1 labeled PY100 antibody (PerkinElmer#AD0160; diluted 1:10,000 in TBS-T containing 0.25% BSA). Incubation at 37° C. for 1 hour was followed by addition of 50 μL enhancement solution (Wallace#1244-105). Plates were agitated for 10 minutes and the fluorescence was measured using the PerkinElmer EnVision™ 2102 or 2104 multi-label plate reader.
(§1) Data analysis was performed using ActivityBase (IDBS, Guilford, UK). IC50 values were calculated by plotting percent inhibition versus log10 of the concentration of compound and fitting to the nonlinear regression sigmoidal dose-response (variable slope) equation in XLFit (IDBS, Guilford, UK).

[2] = biological target: T2, recombinant human FAK (Homo sapiens, UniProt Q05397); assay: FAK Enzyme Assay (TRF detection); format: biochemical; details: 10 μM ATP
T2 construct: purchased Invitrogen PV3832; host or cells: baculovirus expression system
Method: Example compounds were tested for their ability to inhibit the kinase activity of baculovirus-expressed recombinant human FAK using the TRF detection system as described above for JAK2. IC50 runs were performed in 96-well Costar high binding plates (#3922). The plates were coated first with 100 μL/well of 10 μg/mL neutravidin in TBS at 37° C. for 2 h, followed by 100 μL/well of 1 μg/mL 15-mer peptide substrate (biotinyl-amino-hexanoyl-EQEDEPEGDYFEWLE-amide) at 37° C. for another hour. The FAK assay mixture (total volume=100 μL/well) consisting of 20 mM HEPES, pH 7.2, 10 μM ATP, 5 mM MgCl2, 0.5 mM DTT, 0.1% BSA, and test compound (diluted in DMSO; 2.5% DMSO final in assay) was then added to the assay plate. Enzyme (10 ng/mL FAK, Invitrogen #PV3832) was added and the reaction was allowed to proceed at room temperature for 30 minutes. Detection of the phosphorylated product was performed by adding 100 μL/well of Eu—N1 labeled PY100 antibody (diluted 1:75000 in antibody dilution buffer). Samples were incubated at room temperature for 1 hour, followed by addition of 100 μL enhancement solution. Plates were agitated for 10 minutes and fluorescence of the resulting solution measured using the PerkinElmer EnVision™ 2102 (or 2104) multi-label plate reader.
as §1

[3] = biological target: T3, baculovirus-expressed JAK2 (Homo sapiens, UniProt O60674); assay: JAK2 Kinase Assay (TRF detection); format: biochemical; details: 0.2 μM ATP; average of two or more determinations; class symbols
T3 construct: host or cells: baculovirus expression system
Method: Compounds were tested for their ability to inhibit the kinase activity of baculovirus-expressed JAK2 using the TRF detection system. IC50 runs were conducted in 96-well Costar high binding plates (Corning Costar #3922, Corning, N.Y.). The plates were coated first with 100 μL/well of 10 μg/mL Neutravidin (Pierce #31000, Rockford, Ill.) in TBS at 37° C. for 2 hours, followed by 100 μL/well of 1 μg/mL 15-mer peptide substrate (biotinyl-amino-hexanoyl-EQEDEPEGDYFEWLE-amide, Infinity Biotech Research and Resource, Aston, Pa.) at 37° C. for another hour. The JAK2 assay mixture (total volume=100 μL/well) consisting of 20 mM HEPES, pH 7.2, 0.2 μM ATP, 1 mM MnCl2, 0.1% BSA, and test compound (diluted in DMSO; 2.5% DMSO final in assay) was then added to the assay plate. Enzyme (15 ng/ml JAK2) was added and the reaction was allowed to proceed at room temperature for 20 minutes. Detection of the phosphorylated product was performed by adding 100 μL/well of Eu—N1 labeled PY100 antibody (PerkinElmer Life Sciences #AD0041, Boston, Mass.). Incubation at the room temperature then proceeded for 1 hour, followed by addition of 100 μl enhancement solution (PerkinElmer Life Sciences #1244-105, Boston, Mass.). The plate was gently agitated and after thirty minutes, the fluorescence of the resulting solution was measured using the PerkinElmer EnVision™ 2102 (or 2104) multi-label plate reader.
as §1

[4] = biological target: T4, baculovirus-expressed ALK (Homo sapiens, UniProt Q9UM73); assay: ALK Kinase Assay (ELISA/TRF); format: biochemical; details: 1 μM ATP (Km level); average of two or more determinations; class symbols
T4 construct: host or cells: baculovirus expression system
Method: Briefly, each 96-well plate was coated with 100 μL/well of 10 μg/mL substrate (GST-PLC-γ) in Tris-buffered saline (TBS). […] The reaction was initiated by adding enzyme (30 ng/mL ALK) and was allowed to proceed at 37° C. for 15 minutes. Detection of the phosphorylated product was performed by adding 100 μL/well of Eu—N1 labeled PT66 antibody (Perkin Elmer #AD0041). […] Data analysis was performed using ActivityBase (IDBS, Guilford, UK). IC50 values were calculated by plotting percent inhibition versus log10 of the concentration of compound and fitting to the nonlinear regression sigmoidal dose-response (variable slope) equation in XLFit (IDBS, Guilford, UK).

[5] = from C=Cc1ccc(N(C)S(C)(=O)=O)c(Nc2nc(Nc3cc(Br)c(N4CCN(C)CC4)cc3OC)ncc2Cl)c1; cc_pd bond; Pd(OAc)2 / tri-o-tolylphosphine, Et3N; CH3CN; 46.7 mM; 120.0 °C; 0.25 h
[6] = average of two or more determinations, class symbols

T3 sequence (O60674 whole entry): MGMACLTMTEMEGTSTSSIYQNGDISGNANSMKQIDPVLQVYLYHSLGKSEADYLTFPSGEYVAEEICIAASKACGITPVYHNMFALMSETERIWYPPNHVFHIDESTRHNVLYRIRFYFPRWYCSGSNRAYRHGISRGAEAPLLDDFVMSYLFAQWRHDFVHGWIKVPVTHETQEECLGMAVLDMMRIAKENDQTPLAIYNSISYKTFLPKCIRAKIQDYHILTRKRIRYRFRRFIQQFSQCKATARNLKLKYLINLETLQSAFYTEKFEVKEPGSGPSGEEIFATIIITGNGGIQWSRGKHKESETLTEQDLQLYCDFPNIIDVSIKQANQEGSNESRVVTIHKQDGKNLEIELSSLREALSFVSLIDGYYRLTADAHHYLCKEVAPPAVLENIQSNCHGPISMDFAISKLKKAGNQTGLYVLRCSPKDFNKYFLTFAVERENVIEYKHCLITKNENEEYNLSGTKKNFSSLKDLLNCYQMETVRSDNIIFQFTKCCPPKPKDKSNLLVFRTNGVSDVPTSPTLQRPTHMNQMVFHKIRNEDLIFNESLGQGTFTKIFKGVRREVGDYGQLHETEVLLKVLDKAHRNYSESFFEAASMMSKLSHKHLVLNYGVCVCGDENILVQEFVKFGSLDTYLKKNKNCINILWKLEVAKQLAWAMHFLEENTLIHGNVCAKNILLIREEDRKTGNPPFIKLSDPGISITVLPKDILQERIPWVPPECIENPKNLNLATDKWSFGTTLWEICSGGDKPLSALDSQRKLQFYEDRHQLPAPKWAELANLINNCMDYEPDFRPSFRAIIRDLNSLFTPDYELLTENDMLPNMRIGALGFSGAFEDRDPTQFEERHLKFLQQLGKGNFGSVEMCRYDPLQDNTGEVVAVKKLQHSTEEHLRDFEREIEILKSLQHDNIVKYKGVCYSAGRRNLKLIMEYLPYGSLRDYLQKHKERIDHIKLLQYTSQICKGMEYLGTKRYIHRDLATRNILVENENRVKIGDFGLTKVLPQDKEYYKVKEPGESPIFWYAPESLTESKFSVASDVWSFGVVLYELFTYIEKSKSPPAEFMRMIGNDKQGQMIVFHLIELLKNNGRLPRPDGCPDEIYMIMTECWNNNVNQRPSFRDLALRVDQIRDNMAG
T2 sequence (Q05397 whole entry): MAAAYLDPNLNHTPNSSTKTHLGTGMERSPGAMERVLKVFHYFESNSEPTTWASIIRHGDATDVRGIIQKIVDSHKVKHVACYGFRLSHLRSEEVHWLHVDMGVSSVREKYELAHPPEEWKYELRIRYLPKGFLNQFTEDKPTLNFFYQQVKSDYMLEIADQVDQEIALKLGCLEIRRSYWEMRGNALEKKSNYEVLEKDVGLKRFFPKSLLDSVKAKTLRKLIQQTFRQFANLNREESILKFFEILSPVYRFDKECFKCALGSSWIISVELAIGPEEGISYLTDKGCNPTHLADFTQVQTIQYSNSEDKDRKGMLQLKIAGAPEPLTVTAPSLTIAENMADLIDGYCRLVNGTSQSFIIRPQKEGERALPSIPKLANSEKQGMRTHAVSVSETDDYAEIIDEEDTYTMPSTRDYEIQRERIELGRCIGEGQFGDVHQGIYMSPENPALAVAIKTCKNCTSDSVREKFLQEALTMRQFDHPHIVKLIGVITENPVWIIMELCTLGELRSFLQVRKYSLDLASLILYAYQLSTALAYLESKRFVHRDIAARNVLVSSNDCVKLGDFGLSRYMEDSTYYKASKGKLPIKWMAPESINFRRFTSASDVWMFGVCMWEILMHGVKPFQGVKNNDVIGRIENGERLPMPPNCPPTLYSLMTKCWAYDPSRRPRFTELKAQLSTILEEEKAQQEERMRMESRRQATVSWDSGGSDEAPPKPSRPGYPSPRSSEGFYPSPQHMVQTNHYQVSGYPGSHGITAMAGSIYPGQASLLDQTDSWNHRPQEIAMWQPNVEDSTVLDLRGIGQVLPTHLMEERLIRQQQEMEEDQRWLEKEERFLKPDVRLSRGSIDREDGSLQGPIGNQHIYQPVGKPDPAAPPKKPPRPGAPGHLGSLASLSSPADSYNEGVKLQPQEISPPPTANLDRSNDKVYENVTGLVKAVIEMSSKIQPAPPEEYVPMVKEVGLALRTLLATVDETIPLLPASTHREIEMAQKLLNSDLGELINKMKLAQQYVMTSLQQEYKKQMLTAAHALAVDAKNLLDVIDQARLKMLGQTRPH
T1 sequence (P06213 980-1382 limits assumed): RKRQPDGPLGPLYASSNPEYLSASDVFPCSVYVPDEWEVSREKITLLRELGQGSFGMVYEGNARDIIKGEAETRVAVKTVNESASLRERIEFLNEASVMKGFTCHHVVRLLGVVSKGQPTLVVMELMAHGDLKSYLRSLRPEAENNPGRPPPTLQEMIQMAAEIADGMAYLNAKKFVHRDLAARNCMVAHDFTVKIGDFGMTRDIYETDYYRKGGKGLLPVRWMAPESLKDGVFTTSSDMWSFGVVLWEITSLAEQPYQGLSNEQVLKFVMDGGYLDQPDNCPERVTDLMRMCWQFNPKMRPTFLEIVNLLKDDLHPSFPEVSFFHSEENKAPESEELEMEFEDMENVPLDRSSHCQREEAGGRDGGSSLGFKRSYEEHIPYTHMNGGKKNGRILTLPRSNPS
T4 sequence (Q9UM73 19-1620): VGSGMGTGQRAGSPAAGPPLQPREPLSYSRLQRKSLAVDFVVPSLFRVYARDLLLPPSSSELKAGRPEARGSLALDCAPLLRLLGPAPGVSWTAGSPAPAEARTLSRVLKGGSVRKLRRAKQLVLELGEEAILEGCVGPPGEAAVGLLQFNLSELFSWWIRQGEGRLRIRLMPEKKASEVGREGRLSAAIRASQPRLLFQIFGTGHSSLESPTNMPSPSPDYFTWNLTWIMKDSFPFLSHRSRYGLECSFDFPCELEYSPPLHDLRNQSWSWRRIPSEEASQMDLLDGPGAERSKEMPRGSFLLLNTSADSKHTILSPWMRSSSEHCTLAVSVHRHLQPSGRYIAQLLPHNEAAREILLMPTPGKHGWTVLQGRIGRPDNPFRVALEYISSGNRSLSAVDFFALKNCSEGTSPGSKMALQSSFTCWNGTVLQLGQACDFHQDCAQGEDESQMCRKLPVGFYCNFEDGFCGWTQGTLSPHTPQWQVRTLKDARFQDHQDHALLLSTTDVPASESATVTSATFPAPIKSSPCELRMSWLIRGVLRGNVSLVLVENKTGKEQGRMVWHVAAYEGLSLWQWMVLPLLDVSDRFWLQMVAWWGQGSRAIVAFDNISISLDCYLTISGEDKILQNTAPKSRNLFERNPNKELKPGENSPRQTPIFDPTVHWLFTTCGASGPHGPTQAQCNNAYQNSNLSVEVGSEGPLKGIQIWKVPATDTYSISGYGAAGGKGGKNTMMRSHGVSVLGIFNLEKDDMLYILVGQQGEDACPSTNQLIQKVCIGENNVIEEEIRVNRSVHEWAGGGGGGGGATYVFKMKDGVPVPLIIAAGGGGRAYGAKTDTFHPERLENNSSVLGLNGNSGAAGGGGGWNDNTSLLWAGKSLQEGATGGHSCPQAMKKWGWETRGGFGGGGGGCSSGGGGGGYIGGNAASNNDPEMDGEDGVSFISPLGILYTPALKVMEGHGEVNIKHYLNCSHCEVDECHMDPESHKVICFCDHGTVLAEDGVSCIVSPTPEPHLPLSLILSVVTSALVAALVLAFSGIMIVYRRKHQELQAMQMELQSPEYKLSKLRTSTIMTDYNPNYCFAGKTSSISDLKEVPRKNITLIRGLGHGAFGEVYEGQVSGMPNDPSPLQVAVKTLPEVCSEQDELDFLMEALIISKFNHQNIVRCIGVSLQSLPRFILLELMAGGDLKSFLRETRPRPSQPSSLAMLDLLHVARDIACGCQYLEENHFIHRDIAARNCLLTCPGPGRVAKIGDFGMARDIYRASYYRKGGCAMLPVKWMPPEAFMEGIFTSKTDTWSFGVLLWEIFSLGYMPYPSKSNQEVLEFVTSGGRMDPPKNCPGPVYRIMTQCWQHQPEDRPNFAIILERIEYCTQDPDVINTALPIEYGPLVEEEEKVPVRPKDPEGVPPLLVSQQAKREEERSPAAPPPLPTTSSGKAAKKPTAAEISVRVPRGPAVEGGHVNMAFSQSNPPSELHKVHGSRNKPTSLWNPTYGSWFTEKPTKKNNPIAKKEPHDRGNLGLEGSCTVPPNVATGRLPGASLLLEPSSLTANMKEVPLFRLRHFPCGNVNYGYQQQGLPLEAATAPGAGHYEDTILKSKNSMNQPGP

| Structure (SMILES) | IC50 [1, 6] | IC50 [2, 6] | IC50 [3] | IC50 [4] | melting point | IC50 ([1]; given as numeric bound) | IC50 ([2]; given as numeric bound) | ring closure, yield of all isomers [5] |
| --- | --- | --- | --- | --- | --- | --- | --- | --- |
| CN1CCN(c2ccc3cc2CCc2ccc(S(C)(=O)=O)c(c2)Nc2nc(ncc2Cl)N3)CC1 [Example 19, 6-Chloro-10-(methanesulfonyl)-17-(4-methylpiperazin-1-yl)-2,4,8,22-tetraazatetracyclo[14.3.1.1^3,7.1^9,13]docosa-1(20),3(22),4,6,9(21),10,12,16,18-nonaene] | 101 to 1000 nM | 10 to 100 nM | 10 to 100 nM | 10 to 100 nM | > 250 °C |  |  |  |
| CC(C)S(=O)(=O)c1ccc2cc1Nc1nc(ncc1Cl)Nc1ccc(N3CCN(C)CC3)c(c1)CC2 [Example 12, 6-Chloro-10-(propane-2-sulfonyl)-17-(4-methylpiperazin-1-yl)-2,4,8,22-tetraazatetracyclo[14.3.1.1^3,7.1^9,13]docosa-1(20),3(22),4,6,9(21),10,12,16,18-nonaene] | 10 to 100 nM | < 10 nM | < 10 nM |  | > 250 °C |  |  |  |
| COc1cc(C2CCN(C)CC2)c2cc1Nc1ncc(Cl)c(n1)Nc1cc(ccc1N(C)S(C)(=O)=O)/C=C\2 [Example 7, (14Z)-6-Chloro-10-(2-methanesulfonyl-methyl-amino)-17-(1-methyl-piperidin-4-yl)-19-methoxy-2,4,8,22-tetraazatetracyclo[14.3.1.1^3,7.1^9,13]docosa-1(20),3(22),4,6,9(21),10,12,14,16,18-decaene] |  | < 10 nM | 1000 to 10000 nM | 10 to 100 nM | 244 to 246 °C | > 2000 nM |  |  |
| COc1cc(N2CCN(C)CC2)c2cc1Nc1ncc(Cl)c(n1)Nc1cc(ccc1N(C)S(C)(=O)=O)/C=C\2 [Example 4, (14Z)-6-Chloro-10-(2-methanesulfonyl-methyl-amino)-17-(4-methylpiperazin-1-yl)-19-methoxy-2,4,8,22-tetraazatetracyclo[14.3.1.1^3,7.1^9,13]docosa-1(20),3(22),4,6,9(21),10,12,14,16,18-decaene] | 1000 to 10000 nM | < 10 nM |  |  | 278 to 280 °C | > 2000 nM | > 3000 nM | 72% |
